According to paper PMC9127186, “Molecular Basis Underlying Hepatobiliary and Renal Excretion of Phenolic Acids of Salvia miltiorrhiza Roots (Danshen)” (Frontiers in Pharmacology, 2022):

How the values were obtained:
human OAT1 = biological target: T1, human OAT1 (Homo sapiens, UniProt Q4U2R8); design: method as in Kang et al. (2021); conditions: ref Kang et al. (2021); cited from earlier work
T1 sequence (Q4U2R8 1-563): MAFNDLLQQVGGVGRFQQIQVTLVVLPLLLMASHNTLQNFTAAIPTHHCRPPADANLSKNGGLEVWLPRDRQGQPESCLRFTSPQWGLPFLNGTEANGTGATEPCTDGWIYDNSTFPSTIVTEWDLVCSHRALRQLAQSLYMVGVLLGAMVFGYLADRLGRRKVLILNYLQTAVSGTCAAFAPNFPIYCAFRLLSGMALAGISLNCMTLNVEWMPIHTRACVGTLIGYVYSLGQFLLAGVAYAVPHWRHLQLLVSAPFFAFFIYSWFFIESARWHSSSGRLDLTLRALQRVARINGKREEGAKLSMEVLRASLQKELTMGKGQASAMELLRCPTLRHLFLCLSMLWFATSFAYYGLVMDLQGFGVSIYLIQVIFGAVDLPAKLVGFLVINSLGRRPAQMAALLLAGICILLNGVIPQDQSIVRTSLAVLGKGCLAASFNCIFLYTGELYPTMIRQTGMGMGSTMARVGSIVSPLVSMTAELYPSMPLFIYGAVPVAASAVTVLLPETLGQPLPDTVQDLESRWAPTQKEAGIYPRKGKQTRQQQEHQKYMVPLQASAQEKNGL

rat Ntcp = biological target: T2, rat Ntcp (Rattus norvegicus, UniProt P26435); conditions: 10 min, 100 μM
T2 sequence (P26435 1-362): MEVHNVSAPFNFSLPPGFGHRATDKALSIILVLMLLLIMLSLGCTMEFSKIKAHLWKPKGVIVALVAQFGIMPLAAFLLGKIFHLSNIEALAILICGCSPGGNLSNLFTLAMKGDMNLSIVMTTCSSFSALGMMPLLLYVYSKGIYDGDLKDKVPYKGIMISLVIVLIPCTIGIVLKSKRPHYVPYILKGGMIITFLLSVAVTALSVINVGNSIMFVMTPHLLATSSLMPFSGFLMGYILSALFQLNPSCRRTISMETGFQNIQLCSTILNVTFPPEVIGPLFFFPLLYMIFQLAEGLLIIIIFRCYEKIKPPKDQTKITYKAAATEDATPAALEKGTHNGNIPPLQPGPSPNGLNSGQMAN

rat Oct1 = biological target: T3, rat Oct1 (Rattus norvegicus, UniProt Q63089); conditions: 10 min, 100 μM
T3 sequence (Q63089 1-556): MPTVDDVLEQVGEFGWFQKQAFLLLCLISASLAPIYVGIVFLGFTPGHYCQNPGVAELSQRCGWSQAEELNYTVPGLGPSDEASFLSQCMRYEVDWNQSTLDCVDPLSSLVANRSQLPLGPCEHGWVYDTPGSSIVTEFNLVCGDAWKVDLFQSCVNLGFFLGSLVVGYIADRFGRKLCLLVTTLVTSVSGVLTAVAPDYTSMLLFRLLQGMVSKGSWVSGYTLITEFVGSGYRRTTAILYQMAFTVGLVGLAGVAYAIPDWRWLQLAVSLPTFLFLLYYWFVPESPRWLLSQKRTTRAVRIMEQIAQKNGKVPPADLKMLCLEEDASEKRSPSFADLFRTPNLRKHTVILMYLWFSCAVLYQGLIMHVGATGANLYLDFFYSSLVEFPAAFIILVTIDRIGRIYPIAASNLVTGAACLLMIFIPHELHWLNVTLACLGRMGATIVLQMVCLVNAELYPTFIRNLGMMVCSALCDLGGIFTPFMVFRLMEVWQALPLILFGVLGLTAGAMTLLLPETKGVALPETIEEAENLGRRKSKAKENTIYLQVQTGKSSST

human OCT3 = biological target: T4, human OCT3 (Homo sapiens, UniProt O75751)
T4 sequence (O75751 1-556): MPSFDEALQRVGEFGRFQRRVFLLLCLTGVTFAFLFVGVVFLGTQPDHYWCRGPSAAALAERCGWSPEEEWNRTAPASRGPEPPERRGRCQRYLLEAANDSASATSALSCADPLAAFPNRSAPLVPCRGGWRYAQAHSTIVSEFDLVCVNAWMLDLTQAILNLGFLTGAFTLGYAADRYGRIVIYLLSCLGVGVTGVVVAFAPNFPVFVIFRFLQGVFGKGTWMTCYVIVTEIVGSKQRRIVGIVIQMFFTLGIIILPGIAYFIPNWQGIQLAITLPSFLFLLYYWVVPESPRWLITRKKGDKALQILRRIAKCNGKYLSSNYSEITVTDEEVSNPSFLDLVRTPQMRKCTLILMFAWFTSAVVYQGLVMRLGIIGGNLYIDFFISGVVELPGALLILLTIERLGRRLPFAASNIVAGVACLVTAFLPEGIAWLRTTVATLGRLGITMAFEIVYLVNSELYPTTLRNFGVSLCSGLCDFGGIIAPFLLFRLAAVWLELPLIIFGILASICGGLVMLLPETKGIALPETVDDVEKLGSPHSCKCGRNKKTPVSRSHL

human OATP1B1 = biological target: T5, human OATP1B1 (Homo sapiens, UniProt Q9Y6L6); design: method as in Cao et al. (2019); conditions: ref Cao et al. (2019); cited from earlier work
T5 sequence (Q9Y6L6 1-691): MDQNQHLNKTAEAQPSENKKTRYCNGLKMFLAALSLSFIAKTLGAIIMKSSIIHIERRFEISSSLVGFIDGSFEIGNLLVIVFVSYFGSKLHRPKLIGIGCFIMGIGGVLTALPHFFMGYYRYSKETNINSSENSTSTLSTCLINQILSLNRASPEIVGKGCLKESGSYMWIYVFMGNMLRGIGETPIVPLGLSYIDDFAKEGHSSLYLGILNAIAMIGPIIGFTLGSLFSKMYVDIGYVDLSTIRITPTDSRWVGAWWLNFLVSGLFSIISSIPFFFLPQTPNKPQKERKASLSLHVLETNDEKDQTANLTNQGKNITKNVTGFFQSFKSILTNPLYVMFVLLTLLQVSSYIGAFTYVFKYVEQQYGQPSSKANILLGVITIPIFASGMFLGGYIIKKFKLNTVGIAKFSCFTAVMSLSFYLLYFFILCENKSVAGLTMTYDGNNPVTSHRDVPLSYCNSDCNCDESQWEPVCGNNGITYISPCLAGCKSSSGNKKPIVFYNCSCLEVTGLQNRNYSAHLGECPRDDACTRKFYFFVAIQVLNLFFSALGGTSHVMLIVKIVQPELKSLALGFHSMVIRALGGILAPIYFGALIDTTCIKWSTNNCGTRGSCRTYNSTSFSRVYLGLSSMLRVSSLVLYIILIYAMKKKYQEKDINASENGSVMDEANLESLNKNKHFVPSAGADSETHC

OATP1B1 = system: OATP1B1; design: method as in Li et al., 2019; conditions: ref Li et al., 2019; read-out: half maximum inhibitory concentration (IC50) for OATP1B1; cited from earlier work

Molecule | substrate of human OAT1 (human OAT1) | TransportTC/TransportMC ratio (net transport ratio) (rat Ntcp) | TransportTC/TransportMC ratio (net transport ratio) (rat Oct1) | TransportTC/TransportMC ratio (net transport ratio) (human OCT3) | substrate of human OATP1B1 (human OATP1B1) | IC50 (OATP1B1)
O=C(/C=C/c1ccc(O)c(O)c1)O[C@H](Cc1ccc(O)c(O)c1)C(=O)O [Rosmarinic acid, rosmarinic acid] | substrate | 1.68 ± 0.25 | 1.56 ± 0.13 | – | – | –
O=C(/C=C/c1ccc(O)c(O)c1/C=C/c1ccc(O)c(O)c1)O[C@H](Cc1ccc(O)c(O)c1)C(=O)O [Salvianolic acid A, salvianolic acid A] | – | 0.84 ± 0.13 | 1.13 ± 0.19 | 1.31 ± 0.09 | – | –
salvianolic acid B | – | – | – | – | substrate | 38 µM
